{"source": "paper doi:10.1101/2023.11.09.566408v1", "about": "(bioRxiv, 2023)", "key": {"[1]": {"conditions": "rats, IV, cited from earlier work"}, "[2]": {"type": "in vivo, mice", "conditions": "male, Swiss, mouse, plasma, po, 100 ug"}}, "data": [{"smiles": "CC[C@H](C)[C@H](NC(=O)[C@@H]1CCCN1C(=O)CNC(=O)[C@H](Cc1ccccc1)NC(=O)[C@H](CC(N)=O)NC(=O)[C@H](CC(N)=O)NC(=O)[C@H](CO)NC(=O)[C@H](CO)NC(=O)[C@H](Cc1c[nH]cn1)NC(=O)[C@@H](NC(=O)[C@H](CC(C)C)NC(=O)[C@H](Cc1ccccc1)NC(=O)[C@H](CC(N)=O)NC(=O)[C@H](C)NC(=O)[C@H](CC(C)C)NC(=O)[C@H](CCCNC(=N)N)NC(=O)[C@H](CCC(N)=O)NC(=O)[C@@H](NC(=O)[C@H](C)NC(=O)[C@@H]1CSSC[C@H](NC(=O)[C@@H](N)CCCCN)C(=O)N[C@@H](CC(N)=O)C(=O)N[C@@H]([C@@H](C)O)C(=O)N[C@@H](C)C(=O)N[C@@H]([C@@H](C)O)C(=O)N1)[C@@H](C)O)C(C)C)C(=O)N[C@@H](CC(C)C)C(=O)N1CCC[C@H]1C(=O)N1CCC[C@H]1C(=O)N[C@H](C(=O)N[C@@H](CC(N)=O)C(=O)N[C@H](C(=O)NCC(=O)N[C@@H](CO)C(=O)N[C@@H](CC(N)=O)C(=O)N[C@H](C(=O)N[C@@H](Cc1ccc(O)cc1)C(N)=O)[C@@H](C)O)C(C)C)[C@@H](C)O", "note": "[pramlintide]", "values": [{"measurement": "plasma concentration", "setting": "[1]; 1 μg", "value": "1,000 pM"}, {"measurement": "plasmatic concentration", "setting": "[1]; 10 μg", "value": "10,000 pM"}, {"measurement": "Tmax", "setting": "[2]", "value": 30, "unit": "min"}]}]}
